Assay results reported in PubChem BioAssay (NCI).
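Each compound was tested at five concentrations against cells in 96-well plates for 48 hours. GI50 marks 50% less growth. TGI: total growth inhibition.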

Key:
Assay in all cases: NCI-60 cell line screen, 48 h
786-0 renal = test system: 786-0 renal
A498 renal = test system: A498 renal
A549 NSCLC = test system: A549 NSCLC
ACHN renal = test system: ACHN renal
BT-549 breast = test system: BT-549 breast
CAKI-1 renal = test system: CAKI-1 renal
CCRF-CEM leukemia = test system: CCRF-CEM leukemia
COLO 205 colon = test system: COLO 205 colon
DU-145 prostate = test system: DU-145 prostate
EKVX NSCLC = test system: EKVX NSCLC
HCC-2998 colon = test system: HCC-2998 colon
HCT-116 colon = test system: HCT-116 colon
HCT-15 colon = test system: HCT-15 colon
HL-60(TB) leukemia = test system: HL-60(TB) leukemia
HOP-62 NSCLC = test system: HOP-62 NSCLC
HOP-92 NSCLC = test system: HOP-92 NSCLC
HS 578T breast = test system: HS 578T breast
HT29 colon = test system: HT29 colon
IGROV1 ovarian = test system: IGROV1 ovarian
K-562 leukemia = test system: K-562 leukemia
KM12 colon = test system: KM12 colon
LOX IMVI melanoma = test system: LOX IMVI melanoma
M14 melanoma = test system: M14 melanoma
MALME-3M melanoma = test system: MALME-3M melanoma
MCF7 breast = test system: MCF7 breast
MDA-MB-435 = test system: MDA-MB-435
MDA-MB-468 breast = test system: MDA-MB-468 breast
MOLT-4 leukemia = test system: MOLT-4 leukemia
NCI-H226 lung = test system: NCI-H226 lung
NCI-H23 lung = test system: NCI-H23 lung
NCI-H460 lung = test system: NCI-H460 lung
NCI-H522 lung = test system: NCI-H522 lung
NCI/ADR-RES ovarian = test system: NCI/ADR-RES ovarian
OVCAR-3 ovarian = test system: OVCAR-3 ovarian
OVCAR-4 ovarian = test system: OVCAR-4 ovarian
OVCAR-5 ovarian = test system: OVCAR-5 ovarian
OVCAR-8 ovarian = test system: OVCAR-8 ovarian
PC-3 prostate = test system: PC-3 prostate
RPMI-8226 leukemia = test system: RPMI-8226 leukemia
RXF 393 renal = test system: RXF 393 renal
SF-268 CNS = test system: SF-268 CNS
SF-295 CNS = test system: SF-295 CNS
SF-539 CNS = test system: SF-539 CNS
SK-MEL-28 melanoma = test system: SK-MEL-28 melanoma
SK-MEL-5 melanoma = test system: SK-MEL-5 melanoma
SK-OV-3 ovarian = test system: SK-OV-3 ovarian
SN12C renal = test system: SN12C renal
SNB-19 CNS = test system: SNB-19 CNS
SR leukemia = test system: SR leukemia
SW-620 colon = test system: SW-620 colon
T-47D breast = test system: T-47D breast
TK-10 renal = test system: TK-10 renal
U251 CNS = test system: U251 CNS
UACC-257 melanoma = test system: UACC-257 melanoma
UACC-62 melanoma = test system: UACC-62 melanoma

CS(=O)(=O)Nc1ccc(-c2ccc3c(c2)ncn3-c2ccc(NC(=O)Nc3ccc(Br)cc3)cc2)cc1
GI50 (786-0 renal): 2.25 µM
TGI (786-0 renal): 16 µM
GI50 (A498 renal): 3.42 µM
TGI (A498 renal): 21.5 µM
GI50 (A549 NSCLC): 2.44 µM
TGI (A549 NSCLC): > 72.3 µM
GI50 (ACHN renal): 2.55 µM
TGI (ACHN renal): 12.3 µM
GI50 (BT-549 breast): 2.64 µM
TGI (BT-549 breast): 12.8 µM
GI50 (CAKI-1 renal): 6 µM
TGI (CAKI-1 renal): > 72.3 µM
GI50 (CCRF-CEM leukemia): 2.12 µM
TGI (CCRF-CEM leukemia): 7.23 µM
GI50 (COLO 205 colon): 2.59 µM
TGI (COLO 205 colon): > 72.3 µM
GI50 (DU-145 prostate): 3.36 µM
TGI (DU-145 prostate): > 72.3 µM
GI50 (EKVX NSCLC): 2.4 µM
TGI (EKVX NSCLC): > 72.3 µM
GI50 (HCC-2998 colon): 3.32 µM
TGI (HCC-2998 colon): > 72.3 µM
GI50 (HCT-116 colon): 2.33 µM
TGI (HCT-116 colon): > 72.3 µM
GI50 (HCT-15 colon): 2.4 µM
TGI (HCT-15 colon): > 72.3 µM
GI50 (HL-60(TB) leukemia): 1.49 µM
TGI (HL-60(TB) leukemia): 3.33 µM
GI50 (HOP-62 NSCLC): 2.54 µM
TGI (HOP-62 NSCLC): 13 µM
GI50 (HOP-92 NSCLC): 3.39 µM
TGI (HOP-92 NSCLC): > 72.3 µM
GI50 (HS 578T breast): 2.42 µM
TGI (HS 578T breast): > 72.3 µM
GI50 (HT29 colon): 2.43 µM
TGI (HT29 colon): > 72.3 µM
GI50 (IGROV1 ovarian): 3.17 µM
TGI (IGROV1 ovarian): > 72.3 µM
GI50 (K-562 leukemia): 1.88 µM
TGI (K-562 leukemia): 4.91 µM
GI50 (KM12 colon): 0.336 µM
TGI (KM12 colon): > 72.3 µM
GI50 (LOX IMVI melanoma): 2.64 µM
TGI (LOX IMVI melanoma): 44.3 µM
GI50 (M14 melanoma): 2.36 µM
TGI (M14 melanoma): > 72.3 µM
GI50 (MALME-3M melanoma): 1.95 µM
TGI (MALME-3M melanoma): 5.94 µM
GI50 (MCF7 breast): 1.81 µM
TGI (MCF7 breast): 7.89 µM
GI50 (MDA-MB-435): 2.62 µM
TGI (MDA-MB-435): > 72.3 µM
GI50 (MDA-MB-468 breast): 2.26 µM
TGI (MDA-MB-468 breast): 10.9 µM
GI50 (MOLT-4 leukemia): 1.37 µM
TGI (MOLT-4 leukemia): 4.31 µM
GI50 (NCI-H226 lung): 3.08 µM
TGI (NCI-H226 lung): > 72.3 µM
GI50 (NCI-H23 lung): 2.57 µM
TGI (NCI-H23 lung): > 72.3 µM
GI50 (NCI-H460 lung): 2.64 µM
TGI (NCI-H460 lung): > 72.3 µM
GI50 (NCI-H522 lung): 2.11 µM
TGI (NCI-H522 lung): 31.2 µM
GI50 (NCI/ADR-RES ovarian): 10.8 µM
TGI (NCI/ADR-RES ovarian): > 72.3 µM
GI50 (OVCAR-3 ovarian): 2.76 µM
TGI (OVCAR-3 ovarian): > 72.3 µM
GI50 (OVCAR-4 ovarian): 3.13 µM
TGI (OVCAR-4 ovarian): > 72.3 µM
GI50 (OVCAR-5 ovarian): 3.4 µM
TGI (OVCAR-5 ovarian): > 72.3 µM
GI50 (OVCAR-8 ovarian): 2.81 µM
TGI (OVCAR-8 ovarian): > 72.3 µM
GI50 (PC-3 prostate): 2.69 µM
TGI (PC-3 prostate): > 72.3 µM
GI50 (RPMI-8226 leukemia): 1.52 µM
TGI (RPMI-8226 leukemia): 3.85 µM
GI50 (RXF 393 renal): 1.16 µM
TGI (RXF 393 renal): 4.56 µM
GI50 (SF-268 CNS): 3.41 µM
TGI (SF-268 CNS): > 72.3 µM
GI50 (SF-295 CNS): 1.57 µM
TGI (SF-295 CNS): 4.41 µM
GI50 (SF-539 CNS): 0.83 µM
TGI (SF-539 CNS): 7.64 µM
GI50 (SK-MEL-28 melanoma): 2.18 µM
TGI (SK-MEL-28 melanoma): > 72.3 µM
GI50 (SK-MEL-5 melanoma): 2.35 µM
TGI (SK-MEL-5 melanoma): 7.81 µM
GI50 (SK-OV-3 ovarian): 2.92 µM
TGI (SK-OV-3 ovarian): > 72.3 µM
GI50 (SN12C renal): 2.37 µM
TGI (SN12C renal): > 72.3 µM
GI50 (SNB-19 CNS): 2.57 µM
TGI (SNB-19 CNS): > 72.3 µM
GI50 (SR leukemia): 1.39 µM
TGI (SR leukemia): 3.47 µM
GI50 (SW-620 colon): 3.05 µM
TGI (SW-620 colon): > 72.3 µM
GI50 (T-47D breast): 2.75 µM
TGI (T-47D breast): > 72.3 µM
GI50 (TK-10 renal): 3.32 µM
TGI (TK-10 renal): > 72.3 µM
GI50 (U251 CNS): 2.4 µM
TGI (U251 CNS): > 72.3 µM
GI50 (UACC-257 melanoma): 2.17 µM
TGI (UACC-257 melanoma): 7.89 µM
GI50 (UACC-62 melanoma): 2.25 µM
TGI (UACC-62 melanoma): 9.2 µM

NCC(=O)CCC(=O)O
GI50 (MDA-MB-468 breast): > 100 µM
TGI (MDA-MB-468 breast): > 100 µM

Cc1ccccc1NC(=O)c1sc2nc3c(cc2c1N)C(=O)CCC3
GI50 (MDA-MB-468 breast): 0.529 µM
TGI (MDA-MB-468 breast): 6.21 µM

CCOC(=O)c1cnc2c(cnn2CC)c1NN=C(C)C
GI50 (MDA-MB-468 breast): 31.3 µM
TGI (MDA-MB-468 breast): > 100 µM

COc1cccc(C2C(C#N)=C(N)Oc3cc(OC)ccc32)c1 (stereo not drawn)
GI50 (MDA-MB-468 breast): 0.0322 µM
TGI (MDA-MB-468 breast): > 60 µM

CCC(C)CC(CC)NCCN1CCN(C(CC)CC(C)CC)C1=S (stereo not drawn)
GI50 (MDA-MB-468 breast): 1.54 µM
TGI (MDA-MB-468 breast): 2.89 µM

COC(=O)[C@]12CC[C@@H](C)[C@H](C)[C@@H]1C1=CC[C@@H]3[C@@]4(C)C=C(O)C(=O)C(C)=C4CC[C@@]3(C)[C@]1(C)CC2
GI50 (MDA-MB-468 breast): 9.95 µM
TGI (MDA-MB-468 breast): 26.9 µM

COc1ccc2sc3c(NCCCNCCO)nc4ccccc4c3c(=O)c2c1
GI50 (MDA-MB-468 breast): 1.73 µM
TGI (MDA-MB-468 breast): 3.41 µM

COc1ccc(C(=O)N/N=C/c2ccc(O)cc2O)cc1Nc1ccnc(C(F)(F)F)c1
GI50 (MDA-MB-468 breast): 0.365 µM
TGI (MDA-MB-468 breast): 68.1 µM

CC1(C)CC[C@]2(C(=O)O)CC[C@]3(C)[C@H](CC[C@@H]4[C@@]5(C)CCC(=O)C(C)(C)[C@@H]5CC[C@]43C)[C@H]2[C@H]1OC(=O)C(F)(F)F
GI50 (MDA-MB-468 breast): 5.83 µM
TGI (MDA-MB-468 breast): 21.1 µM
